In patent US12077537B2 (Gilead Sciences, Inc., priority 2020, dated 2024) one finds EC50 data, which are given here for 14 molecules.

This assay deals with HIV-IIIb. Kind of assay: Antiviral assay in MT4 cells. Format: cell-based. As to conditions: Human immunodeficiency virus 1, MT4, 120 h; MT-4 cells mixed with HIV-IIIb at m.o.i. 0.003; 5 days at 37° C.; CellTiter-Glo luminescence; 50% decrease in signal, a measure of HIV-1 replication. The procedure: Antiviral Assay in MT4 Cells For the antiviral assay, 40 μL of a concentration required to achieve a final effective 1× test concentration of 3-fold serially diluted compound in culture medium with 10% FBS was added to each well of a 384-well plate (10 concentrations) in quadruplicate. MT-4 cells were next mixed with HIV-IIIb at an m.o.i of 0.003 for 1 hour, after which time 35 μL of virus/cell mixture (2000 cells) was immediately added to each well containing 40 μL of diluted compound. The plates were then incubated at 37° C. for 5 days. After 5 days of incubation, 25 μl of 2× concentrated CellTiter-Glom Reagent (catalog #G7571, Promega Biosciences, Inc., Madison, WI) was added to each well containing MT-4 cells. Cell lysis was carried out by incubating at room temperature for 10 min and then chemiluminescence was read.
For orientation: Cellular ATP, detected with luciferase, serves as a proxy for viable cell number.

The EC50 is the concentration at which the effect is half-maximal. A lower EC50 goes with greater potency. The molecule `Cn1nc(NS(C)(=O)=O)c2cccc(-c3cc4sc(N5CCC(C)(C(N)=O)CC5)nc4nc3C(Cc3cc(F)cc(F)c3)NC(=O)Cn3nc(C(F)(F)F)c4c3C(F)(F)[C@@H]3C[C@H]43)c21` (stereo partly drawn) [Example 127, 1-(5-(1-(2-((3bS,4aR)-5,5-difluoro-3-(trifluoromethyl)-3b,4,4a,5-tetrahydro-TH-cyclopropa[3,4]cyclopenta[1,2-c]pyrazol-1-yl)acetamido)-2-(3,5-difluorophenyl)ethyl)-6-(1-methyl-3-(methylsulfonamido)-1H-indazol-7-yl)thiazolo[4,5-b]pyridin-2-yl)-4-methylpiperidine-4-carboxamide] returned an EC50 of 0.0319 µM.

Molecule `CSc1nc2nc([C@H](Cc3cc(F)cc(F)c3)NC(=O)Cn3nc(C(F)F)c4c3C(F)(F)[C@@H]3C[C@H]43)c(-c3ccc4c(c3)C(=O)NC4)cc2s1` [Compound 23-2, 2-((3bS,4aR)-3-(difluoromethyl)-5,5-difluoro-3b,4,4a,5-tetrahydro-1H-cyclopropa[3,4]cyclopenta[1,2-c]pyrazol-1-yl)-N—((S)-2-(3,5-difluorophenyl)-1-(2-(methylthio)-6-(3-oxoisoindolin-5-yl)thiazolo[4,5-b]pyridin-5-yl)ethyl)acetamide] returned an EC50 of 0.984 µM.

For the molecule `Cn1nc(NS(C)(=O)=O)c2cccc(-c3cc4[nH]c(-c5ccccc5)nc4nc3[C@H](Cc3cc(F)cc(F)c3)NC(=O)Cn3nc(C(F)(F)F)c4c3C(F)(F)[C@@H]3C[C@H]43)c21` [Example 94, 2-((3bS,4aR)-5,5-difluoro-3-(trifluoromethyl)-3b,4,4a,5-tetrahydro-1H-cyclopropa[3,4]cyclopenta[1,2-c]pyrazol-1-yl)-N—((S)-2-(3,5-difluorophenyl)-1-(6-(1-methyl-3-(methylsulfonamido)-1H-indazol-7-yl)-2-phenyl-1H-imidazo[4,5-b]pyridin-5-yl)ethyl)acetamide], the response was half-maximal at 0.0812 µM (EC50).

Take `Cn1nc(NS(C)(=O)=O)c2c(Cl)ccc(-c3cc4[nH]c(=O)ccc4nc3C(Cc3cc(F)cc(F)c3)NC(=O)Cn3nc(C(F)F)c4c3C(F)(F)[C@@H]3C[C@H]43)c21` (stereo partly drawn) [Compound 135, N-(1-(3-(4-chloro-1-methyl-3-(methylsulfonamido)-1H-indazol-7-yl)-6-oxo-5,6-dihydro-1,5-naphthyridin-2-yl)-2-(3,5-difluorophenyl)ethyl)-2-((3bS,4aR)-3-(difluoromethyl)-5,5-difluoro-3b,4,4a,5-tetrahydro-1H-cyclopropa[3,4]cyclopenta[1,2-c]pyrazol-1-yl)acetamide]: the EC50 turned out to be 0.018 µM.

For `Cn1nc(NS(C)(=O)=O)c2cccc(-c3cc4[nH]c(-c5ccccc5)cc4nc3[C@H](Cc3cc(F)cc(F)c3)NC(=O)Cn3nc(C(F)F)c4c3C3CC3CC4)c21` (stereo partly drawn) [Example 122, 2-(3-(difluoromethyl)-5,5a,6,6a-tetrahydrocyclopropa[g]indazol-1(4H)-yl)-N—((S)-2-(3,5-difluorophenyl)-1-(6-(1-methyl-3-(methylsulfonamido)-1H-indazol-7-yl)-2-phenyl-1H-pyrrolo[3,2-b]pyridin-5-yl)ethyl)acetamide], the EC50 is 0.0123 µM.

For the molecule `NC(=O)c1cc(-c2cc3sc(N4CCN(c5ccc(-c6ncc[nH]6)cc5)CC4)nc3nc2[C@H](Cc2cc(F)cc(F)c2)NC(=O)Cn2nc(C(F)(F)F)c3c2C(F)(F)[C@@H]2C[C@H]32)ccc1F` [Compound 28-1, 5-(2-(4-(4-(1H-imidazol-2-yl)phenyl)piperazin-1-yl)-5-((S)-1-(2-((3bS,4aR)-5,5-difluoro-3-(trifluoromethyl)-3b,4,4a,5-tetrahydro-1H-cyclopropa[3,4]cyclopenta[1,2-c]pyrazol-1-yl)acetamido)-2-(3,5-difluorophenyl)ethyl)thiazolo[4,5-b]pyridin-6-yl)-2-fluorobenzamide], the EC50 came out at 0.3 µM. Against the preceding molecule, the EC50 is about 24-fold higher.

Take `Cn1nc(N)c2cccc(-c3cc4sc(NCC(C)(C)O)nc4nc3[C@H](Cc3cc(F)cc(F)c3)NC(=O)Cn3nc(C(F)F)c4c3C(F)(F)[C@@H]3C[C@H]43)c21` [Compound 57, N—((S)-1-(6-(3-amino-1-methyl-1H-indazol-7-yl)-2-((2-hydroxy-2-methylpropyl)amino)thiazolo[4,5-b]pyridin-5-yl)-2-(3,5-difluorophenyl)ethyl)-2-((3bS,4aR)-3-(difluoromethyl)-5,5-difluoro-3b,4,4a,5-tetrahydro-1H-cyclopropa[3,4]cyclopenta[1,2-c]pyrazol-1-yl)acetamide]: the EC50 stood at 0.013 µM.

Turning to `CC1(O)CN(c2nc3nc([C@H](Cc4cc(F)cc(F)c4)NC(=O)Cn4nc(C(F)(F)F)c5c4C(F)(F)[C@@H]4C[C@H]54)c(-c4ccc5c(c4)C(=O)NC54CC4)cc3s2)C1` [Compound 43, 2-((3bS,4aR)-5,5-difluoro-3-(trifluoromethyl)-3b,4,4a,5-tetrahydro-1H-cyclopropa[3,4]cyclopenta[1,2-c]pyrazol-1-yl)-N—((S)-2-(3,5-difluorophenyl)-1-(2-(3-hydroxy-3-methylazetidin-1-yl)-6-(3′-oxospiro[cyclopropane-1,1′-isoindolin]-5′-yl)thiazolo[4,5-b]pyridin-5-yl)ethyl)acetamide], the EC50 came out at 0.0225 µM.

In the case of `O=C(Cn1nc(C(F)(F)F)c2c1C(F)(F)[C@@H]1C[C@H]21)N[C@@H](Cc1cc(F)cc(F)c1)c1nc2nc(N3CCN(c4ccc(-c5ncc[nH]5)cc4)CC3)sc2cc1-c1ccc2c(c1)C(=O)NC2` [Compound 34, N—((S)-1-(2-(4-(4-(1H-imidazol-2-yl)phenyl)piperazin-1-yl)-6-(3-oxoisoindolin-5-yl)thiazolo[4,5-b]pyridin-5-yl)-2-(3,5-difluorophenyl)ethyl)-2-((3bS,4aR)-5,5-difluoro-3-(trifluoromethyl)-3b,4,4a,5-tetrahydro-1H-cyclopropa[3,4]cyclopenta[1,2-c]pyrazol-1-yl)acetamide], the EC50 is 0.0978 µM.

Turning to `O=C(Cn1nc(C(F)(F)F)c2c1C(F)(F)[C@@H]1C[C@H]21)N[C@@H](Cc1cc(F)cc(F)c1)c1nc2nc(N3CCN(c4ccncc4)CC3)sc2cc1-c1ccc2c(c1)C(=O)NC21CC1` [Compound 42, 2-((3bS,4aR)-5,5-difluoro-3-(trifluoromethyl)-3b,4,4a,5-tetrahydro-1H-cyclopropa[3,4]cyclopenta[1,2-c]pyrazol-1-yl)-N—((S)-2-(3,5-difluorophenyl)-1-(6-(3′-oxospiro[cyclopropane-1,1′-isoindolin]-5′-yl)-2-(4-(pyridin-4-yl)piperazin-1-yl)thiazolo[4,5-b]pyridin-5-yl)ethyl)acetamide], a half-maximal response (EC50) required 0.0872 µM.

`O=C(Cn1nc(C(F)(F)F)c2c1C(F)(F)[C@@H]1C[C@H]21)N[C@@H](Cc1cc(F)cc(F)c1)c1nc2nc(N3CCN(c4ccncc4)CC3)sc2cc1-c1cccc2c1CNC2=O` [Compound 40, 2-((3bS,4aR)-5,5-difluoro-3-(trifluoromethyl)-3b,4,4a,5-tetrahydro-1H-cyclopropa[3,4]cyclopenta[1,2-c]pyrazol-1-yl)-N—((S)-2-(3,5-difluorophenyl)-1-(6-(1-oxoisoindolin-4-yl)-2-(4-(pyridin-4-yl)piperazin-1-yl)thiazolo[4,5-b]pyridin-5-yl)ethyl)acetamide] gave an EC50 of 0.0281 µM.

In turn, `Cn1nc(NS(C)(=O)=O)c2cccc(-c3cc4sc(NC5(C)CC5)nc4nc3[C@H](Cc3cc(F)cc(F)c3)NC(=O)Cn3nc(C(F)(F)F)c4c3C(F)(F)[C@@H]3C[C@H]43)c21` [Example 81, 2-((3bS,4aR)-5,5-difluoro-3-(trifluoromethyl)-3b,4,4a,5-tetrahydro-1H-cyclopropa[3,4]cyclopenta[1,2-c]pyrazol-1-yl)-N—((S)-2-(3,5-difluorophenyl)-1-(6-(1-methyl-3-(methylsulfonamido)-1H-indazol-7-yl)-2-((1-methylcyclopropyl)amino)thiazolo[4,5-b]pyridin-5-yl)ethyl)acetamide] showed an EC50 of 0.0186 µM. This EC50 is about 1.5-fold lower than that of the molecule before.

Turning to `Cn1nc(NS(C)(=O)=O)c2cccc(-c3cc4sc(N5CCC5C(N)=O)nc4nc3[C@H](Cc3cc(F)cc(F)c3)NC(=O)Cn3nc(C(F)(F)F)c4c3C(F)(F)[C@@H]3C[C@H]43)c21` (stereo partly drawn) [Example 74, 1-(5-((S)-1-(2-((3bS,4aR)-5,5-difluoro-3-(trifluoromethyl)-3b,4,4a,5-tetrahydro-1H-cyclopropa[3,4]cyclopenta[1,2-c]pyrazol-1-yl)acetamido)-2-(3,5-difluorophenyl)ethyl)-6-(1-methyl-3-(methylsulfonamido)-1H-indazol-7-yl)thiazolo[4,5-b]pyridin-2-yl)azetidine-2-carboxamide], the EC50 stood at 0.0573 µM.

In the case of `CC(C)(C)OC(=O)N1CCN(c2ccc(-c3nc4nc([C@H](Cc5cc(F)cc(F)c5)NC(=O)Cn5nc(C(F)(F)F)c6c5C(F)(F)[C@@H]5C[C@H]65)c(-c5ccc6c(c5)C(=O)NC6)cc4s3)cc2)CC1` [Compound 145, tert-butyl 4-(4-(5-((S)-1-(2-((3bS,4aR)-5,5-difluoro-3-(trifluoromethyl)-3b,4,4a,5-tetrahydro-1H-cyclopropa[3,4]cyclopenta[1,2-c]pyrazol-1-yl)acetamido)-2-(3,5-difluorophenyl)ethyl)-6-(3-oxoisoindolin-5-yl)thiazolo[4,5-b]pyridin-2-yl)phenyl)piperazine-1-carboxylate], the EC50 is 0.37 µM.
